Where two headings read alike, the source gives them in different places. Where a SMILES comes first, the peptide text is derived from it.
Key:
MATE1 = biological target: T1, MATE1 (Homo sapiens, UniProt Q96FL8); assay: Uptake ratio in MATE1-overexpressing HEK293 cells vs empty vector (2.5 μM, 1 min, HPLC-MS/MS); type: cell-based
T1 sequence (Q96FL8 1-570): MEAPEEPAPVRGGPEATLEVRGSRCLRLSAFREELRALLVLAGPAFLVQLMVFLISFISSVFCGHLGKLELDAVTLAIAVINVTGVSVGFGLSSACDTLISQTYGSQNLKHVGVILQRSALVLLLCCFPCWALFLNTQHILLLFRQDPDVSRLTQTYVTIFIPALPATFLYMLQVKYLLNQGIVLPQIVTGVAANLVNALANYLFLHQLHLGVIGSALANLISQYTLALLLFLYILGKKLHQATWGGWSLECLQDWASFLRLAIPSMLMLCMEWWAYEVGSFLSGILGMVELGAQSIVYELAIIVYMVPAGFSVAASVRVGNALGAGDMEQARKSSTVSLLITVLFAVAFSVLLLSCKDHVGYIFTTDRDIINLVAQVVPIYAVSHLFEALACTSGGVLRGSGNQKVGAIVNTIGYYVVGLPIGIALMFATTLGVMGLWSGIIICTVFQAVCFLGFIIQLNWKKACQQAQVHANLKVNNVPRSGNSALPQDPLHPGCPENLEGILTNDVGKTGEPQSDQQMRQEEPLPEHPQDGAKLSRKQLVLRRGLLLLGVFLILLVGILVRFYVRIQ

MATE2K = MATE2K (Homo sapiens, UniProt Q86VL8); assay: Uptake ratio in MATE2K-overexpressing HEK293 cells vs empty vector (2.5 μM, 1 min, HPLC-MS/MS); type: cell-based
MATE2K, sequence (Q86VL8 1-566 isoform Q86VL8-3): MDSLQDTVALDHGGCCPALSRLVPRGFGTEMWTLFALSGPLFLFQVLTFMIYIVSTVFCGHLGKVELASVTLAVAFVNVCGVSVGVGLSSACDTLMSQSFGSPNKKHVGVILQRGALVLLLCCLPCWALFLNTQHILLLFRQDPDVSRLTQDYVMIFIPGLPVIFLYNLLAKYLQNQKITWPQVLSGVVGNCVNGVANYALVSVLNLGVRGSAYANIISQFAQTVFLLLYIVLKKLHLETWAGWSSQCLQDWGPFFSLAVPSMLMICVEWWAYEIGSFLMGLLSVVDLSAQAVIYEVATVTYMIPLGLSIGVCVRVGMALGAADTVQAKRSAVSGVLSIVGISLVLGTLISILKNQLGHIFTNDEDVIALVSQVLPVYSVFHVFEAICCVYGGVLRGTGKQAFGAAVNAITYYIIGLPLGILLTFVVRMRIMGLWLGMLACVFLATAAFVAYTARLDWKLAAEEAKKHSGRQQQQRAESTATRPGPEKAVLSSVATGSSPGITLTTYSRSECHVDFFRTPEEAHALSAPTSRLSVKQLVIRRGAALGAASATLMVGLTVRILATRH

hCMEC [1] = assay: TS DPH hCMEC (Table S2); type: cell-based, human; set-up: scale not given here
hCMEC [2] = assay: TS MDAI hCMEC (Table S2); type: cell-based, human; set-up: scale not given here
[3] = fold uptake over empty vector, 2.5 μM, 1 min
[4] = mean ratio of uptake in MATE1-overexpressing HEK293 cells vs empty vector, 2.5 μM, 1 min
[5] = mean ratio of uptake in MATE2K-overexpressing HEK293 cells vs empty vector, 2.5 μM, 1 min
[6] = uptake ratio MATE2K-overexpressing vs empty-vector HEK293 cells, 2.5 μM, 1 min, mean
[7] = uptake ratio MATE1-overexpressing vs empty-vector HEK293 cells, 2.5 μM, 1 min, mean

Molecule	MATE1 ratio (MATE1; [3])	MATE2K ratio (MATE2K; [3])	TS DPH hCMEC (hCMEC [1]; Table S2)	TS MDAI hCMEC (hCMEC [2]; Table S2)	other results
Nc1nc(CC(=O)Nc2ccc(CCNC[C@H](O)c3ccccc3)cc2)cs1 [Mirabegron]	8.19	4.76	0.90	0.75	–
O=C1CCc2ccc(OCCCCN3CCN(c4cccc(Cl)c4Cl)CC3)cc2N1 [Aripiprazole]	1.32	1.26	0.72	0.68	MATE1 (uptake ratio) (MATE1; [4]): 1.32; MATE2 (uptake ratio) (MATE2K; [5]): 1.26
COC(=O)[C@H](Cc1ccccc1)NC(=O)[C@@H](N)CC(=O)O [Aspartame] (HELM PEPTIDE1{D.F.[CO[*:1]]}$$$$V2.0)	1.26	1.07	1.77	1.65	MATE1 (uptake ratio) (MATE1; [4]): 1.26; MATE2 (uptake ratio) (MATE2K; [5]): 1.07
CC(C)NCC(O)COc1cccc2[nH]ccc12 (stereo not drawn) [Pindolol]	1.84	1.18	0.59	0.83	–
CCOC(=O)[C@]1(c2ccccc2)CCC=C[C@H]1NC [Nortilidine]	–	–	–	–	MATE1 ratio (MATE1): 1.19; MATE2K ratio (MATE2K): 1.42; TS DPH hCMEC (hCMEC [1]): 0.53; TS MDAI hCMEC (hCMEC [2]): 0.52
Cc1nc2n(c(=O)c1CCN1CCC(c3noc4cc(F)ccc34)CC1)CCCC2 [Risperidone]	–	–	–	–	MATE1 (MATE1): 1.07; MATE1 ratio (MATE1): 1.07; MATE2 (MATE2K): 1.37; MATE2K ratio (MATE2K): 1.37; TS DPH hCMEC (hCMEC [1]): 0.53; TS MDAI hCMEC (hCMEC [2]): 0.46
CC(C)NCC(O)COc1cccc2ccccc12 (stereo not drawn) [Propranolol]	–	–	0.12	0.08	MATE2 (MATE2K; [6]): 1.14
COCCOC(=O)C1=C(C)NC(C)=C(C(=O)OC(C)C)C1c1cccc([N+](=O)[O-])c1 (stereo not drawn) [Nimodipine]	1.33	1.20	1.28	1.25	–
O=C(O[C@H]1CN2CCC1CC2)N1CCc2ccccc2[C@@H]1c1ccccc1 [Solifenacin]	1.28	1.22	0.27	0.44	MATE1 (MATE1; [7]): 1.28; MATE2 (MATE2K; [6]): 1.22
NC(=O)C1(N2CCCCC2)CCN(CCCC(=O)c2ccc(F)cc2)CC1 [Pipamperone]	1.35	1.32	0.42	0.23	–
CN1C2CCCC1CC(NC(=O)c1nn(C)c3ccccc13)C2 (stereo not drawn) [Granisetron]	1.22	1.25	0.43	0.28	–
CN1CCC[C@@H]1Cc1c[nH]c2ccc(CCS(=O)(=O)c3ccccc3)cc12 [Eletriptan]	1.41	1.22	0.21	0.46	–
CC(Cc1ccc(O)cc1)NCC(O)c1cc(O)cc(O)c1 (stereo not drawn) [Fenoterol]	–	–	–	–	MATE1 ratio (MATE1): 14.98; MATE1 ratio in this study (MATE1): 14.98; MATE2K ratio (MATE2K): 5.46; MATE2K ratio in this study (MATE2K): 5.46; TS DPH hCMEC (hCMEC [1]): 1.47; TS MDAI hCMEC (hCMEC [2]): 1.16
CC(C)(C)NCC(O)c1cc(Cl)c(N)c(Cl)c1 (stereo not drawn) [Clenbuterol]	–	–	–	–	MATE1 (uptake ratio) (MATE1): 1.11; MATE1 ratio (MATE1): 1.11; MATE2 (uptake ratio) (MATE2K): 1.18; MATE2K ratio (MATE2K): 1.18; TS DPH hCMEC (hCMEC [1]): 0.36; TS MDAI hCMEC (hCMEC [2]): 0.07
CC(C)(C)NCC(O)c1ccc(O)c(CO)n1 (stereo not drawn) [Pirbuterol]	12.66	6.00	0.95	1.31	–
CC12CC3CC(C)(C1)CC(N)(C3)C2 [Memantine]	1.03	1.18	0.24	0.14	MATE1 ratio in this study (MATE1; Table S1, 2.5 μM, 1 min): 1.03; MATE2K ratio in this study (MATE2K; Table S1, 2.5 μM, 1 min): 1.18
CN(C)CCC=C1c2ccccc2COc2ccccc21 [Doxepin]	1.34	1.32	0.13	0.10	–
CC[C@@H](C(N)=O)N1CCCC1=O [Levetiracetam]	1.19	1.28	1.17	1.19	–

Molecule	MATE1 ratio (MATE1; [3])	MATE2K ratio (MATE2K; [3])	TS DPH hCMEC (hCMEC [1]; Table S2)	TS MDAI hCMEC (hCMEC [2]; Table S2)	other results
CNCC[C@@H](Oc1ccccc1C)c1ccccc1 [Atomoxetine]	1.12	1.18	0.23	0.25	MATE1 (uptake ratio) (MATE1; [4]): 1.12; MATE2 (uptake ratio) (MATE2K; [5]): 1.18
CNCC1CCCCC1(O)c1cccc(OC)c1 (stereo not drawn) [N-Desmethyltramadol]	–	–	–	–	MATE1 ratio (MATE1): 1.12; MATE2K ratio (MATE2K): 1.19; TS DPH hCMEC (hCMEC [1]): 0.37; TS MDAI hCMEC (hCMEC [2]): 0.64
CNc1c(C)n(C)n(-c2ccccc2)c1=O [4-Methylaminoantipyrine]	0.21	0.83	1.20	1.26	MATE1 (uptake ratio) (MATE1; [4]): 0.21; MATE2 (uptake ratio) (MATE2K; [5]): 0.83
CCCN1CCCC[C@H]1C(=O)Nc1c(C)cccc1C [Ropivacaine]	1.22	1.49	0.15	0.37	MATE1 (MATE1; [7]): 1.22; MATE2 (MATE2K; [6]): 1.49
CCCC(=O)Nc1ccc(OCC(O)CNC(C)C)c(C(C)=O)c1 (stereo not drawn) [Acebutolol]	12.97	9.08	0.84	0.88	MATE1 (uptake ratio) (MATE1; [4]): 12.97; MATE2 (uptake ratio) (MATE2K; [5]): 9.08
CCCNC(C)C(=O)Nc1c(C)csc1C(=O)OC (stereo not drawn) [Articaine]	1.26	1.59	0.53	0.47	MATE1 (uptake ratio) (MATE1; [4]): 1.26; MATE2 (uptake ratio) (MATE2K; [5]): 1.59
CC(C)NCC(O)COc1ccc(CC(N)=O)cc1 (stereo not drawn) [Atenolol]	–	–	1.32	1.22	–
C[C@H]1COc2c(N3CCN(C)CC3)c(F)cc3c(=O)c(C(=O)O)cn1c23 [Ofloxacin (L), Levofloxacin]	–	–	0.97	1.16	–
CNCCC=C1c2ccccc2CCc2ccccc21 [Nortriptyline]	–	–	0.23	0.12	–
Maraviroc	–	–	–	–	TS DPH hCMEC (hCMEC [1]): 1.01; TS MDAI hCMEC (hCMEC [2]): 0.57
C#CCN(C)[C@H](C)Cc1ccccc1 [Selegiline]	–	–	–	–	TS DPH hCMEC (hCMEC [1]): 0.56; TS MDAI hCMEC (hCMEC [2]): 0.50
COc1ccc2c3c1O[C@H]1C(=O)CC[C@H]4[C@@H](C2)N(C)CC[C@]314 [Hydrocodone]	–	–	–	–	TS DPH hCMEC (hCMEC [1]): 1.35; TS MDAI hCMEC (hCMEC [2]): 0.46
CCN(CC)CCNC(=O)c1cc(Cl)c(N)cc1OC [Metoclopramide]	–	–	0.60	0.42	–
O=C(O)COCCN1CCN(C(c2ccccc2)c2ccc(Cl)cc2)CC1 (stereo not drawn) [Cetirizine]	–	–	0.85	0.99	–
CCN(C)C(=O)Oc1cccc([C@H](C)N(C)C)c1 [Rivastigmine]	–	–	–	–	TS DPH hCMEC (hCMEC [1]): 0.73; TS MDAI hCMEC (hCMEC [2]): 0.43
C[N+]1(C)[C@@H]2C[C@H](OC(=O)[C@H](CO)c3ccccc3)C[C@H]1[C@@H]1O[C@@H]12 [Methylscopolamine]	–	–	0.84	–	TS MDAI hCMEC (hCMEC [2]): 1.02
CC(NC(C)(C)C)C(=O)c1cccc(Cl)c1 (stereo not drawn) [Bupropion]	–	–	0.25	0.09	–

From paper PMC12207590, “Substrate Specificity of the Organic Cation Transporters MATE1 and MATE2K and Functional Overlap with OCT1 and OCT2” (Journal of Medicinal Chemistry, 2025)
